From patent publication US20230257347A1 (priority 2020, published 2023)
Read-outs that look alike come from different tables or passages of the source.

Tests used:
MAOA = biological target: T1, MAOA (Homo sapiens, UniProt P21397); conditions: cited from earlier work; for IC50: read-out: MAOA IC50, Table 10, Source (1) Wagmann et al. 2017
T1 sequence (P21397 1-527): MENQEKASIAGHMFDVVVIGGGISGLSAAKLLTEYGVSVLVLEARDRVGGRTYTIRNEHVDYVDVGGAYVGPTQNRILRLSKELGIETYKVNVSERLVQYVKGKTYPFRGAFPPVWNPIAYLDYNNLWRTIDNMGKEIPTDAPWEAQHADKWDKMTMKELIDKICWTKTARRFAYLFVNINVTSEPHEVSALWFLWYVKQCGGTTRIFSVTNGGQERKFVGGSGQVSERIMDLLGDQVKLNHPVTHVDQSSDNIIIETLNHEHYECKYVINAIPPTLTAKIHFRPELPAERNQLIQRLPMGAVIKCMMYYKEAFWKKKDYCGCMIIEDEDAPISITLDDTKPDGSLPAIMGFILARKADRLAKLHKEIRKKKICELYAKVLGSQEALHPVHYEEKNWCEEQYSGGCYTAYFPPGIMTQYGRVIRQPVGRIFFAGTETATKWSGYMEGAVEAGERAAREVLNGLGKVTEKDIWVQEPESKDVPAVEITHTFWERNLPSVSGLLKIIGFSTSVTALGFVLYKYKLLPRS

[1] = biological target: T2, Monoamine oxidase type A (MAOA) (Homo sapiens, UniProt P21397); assay: Enzymatic assay, MAOA (kynuramine substrate); format: biochemical; conditions: for Hill: Hill of MAOA inhibition curve, Original data; for MAOA inhibition (MAOI or not, in words): original data
T2 construct: purchased Sigma
T2 sequence (P21397 1-527): T1 sequence (P21397 1-527)

neuritogenesis = conditions: cited from earlier work
[2] = biological target: T3, human 5-HT transporter (hSERT) (Homo sapiens, UniProt P31645); assay: hSERT antagonist radioligand assay ([3H]imipramine), CHO cells; format: binding
T3 construct: expressed in transfected cells; host or cells: CHO
T3 sequence (P31645 whole entry): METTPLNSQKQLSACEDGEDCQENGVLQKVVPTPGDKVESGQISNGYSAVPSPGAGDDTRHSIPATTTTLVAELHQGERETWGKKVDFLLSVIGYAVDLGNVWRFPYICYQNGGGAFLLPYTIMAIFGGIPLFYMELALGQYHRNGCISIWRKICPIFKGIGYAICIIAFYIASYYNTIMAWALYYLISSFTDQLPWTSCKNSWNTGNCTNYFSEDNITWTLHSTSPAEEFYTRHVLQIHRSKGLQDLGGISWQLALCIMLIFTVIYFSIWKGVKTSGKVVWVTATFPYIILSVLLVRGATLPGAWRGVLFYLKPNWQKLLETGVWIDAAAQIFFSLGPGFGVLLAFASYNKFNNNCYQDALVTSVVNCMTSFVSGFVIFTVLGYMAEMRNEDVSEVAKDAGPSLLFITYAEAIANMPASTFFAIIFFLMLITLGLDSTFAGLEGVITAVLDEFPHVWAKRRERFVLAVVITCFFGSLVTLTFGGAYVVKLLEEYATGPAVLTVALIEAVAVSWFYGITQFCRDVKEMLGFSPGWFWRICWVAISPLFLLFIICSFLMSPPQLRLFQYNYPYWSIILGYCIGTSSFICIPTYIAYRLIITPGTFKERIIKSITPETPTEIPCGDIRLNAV
Source text: Interactions with these transporters were therefore separately measured using two additional types of assays: an antagonist radioligand assay of inhibition of the human 5-HT transporter (hSERT) expressed in CHO cells (Tatsumi, M. et al. (1999), Eur. J. Pharmacol., 368: 277-283) and an assay measuring release of [^3H] […] While the former is sensitive to classic reuptake inhibition, the latter can detect the effects of substrates, which also induce release. Specific assay steps and reference compounds are given below for each assay type.
Three tryptamine derivatives were evaluated for inhibiting the human 5-HT transporter (hSERT) as expressed in CHO cells using an antagonist radioligand assay (Tatsumi, M. et al. 1999, Eur. J. Pharmacol., 368: 277-283). […] Test compounds were assayed in two trials at 3.0E-10, 3.0E-9, 3.0E-8, 3.0E-7, 3.0E-6, and 3.0E-5 M.

human DAT = biological target: T4, human DAT (Homo sapiens, UniProt Q01959); assay: hDAT release of [3H]dopamine, CHO cells; format: cell-based; conditions: for DAT/SERT ratio: (DAT EC50)^−1/(SERT EC50)^−1, larger numbers indicate higher DAT selectivity
T4 construct: expressed in transfected cells
T4 sequence (Q01959 whole entry): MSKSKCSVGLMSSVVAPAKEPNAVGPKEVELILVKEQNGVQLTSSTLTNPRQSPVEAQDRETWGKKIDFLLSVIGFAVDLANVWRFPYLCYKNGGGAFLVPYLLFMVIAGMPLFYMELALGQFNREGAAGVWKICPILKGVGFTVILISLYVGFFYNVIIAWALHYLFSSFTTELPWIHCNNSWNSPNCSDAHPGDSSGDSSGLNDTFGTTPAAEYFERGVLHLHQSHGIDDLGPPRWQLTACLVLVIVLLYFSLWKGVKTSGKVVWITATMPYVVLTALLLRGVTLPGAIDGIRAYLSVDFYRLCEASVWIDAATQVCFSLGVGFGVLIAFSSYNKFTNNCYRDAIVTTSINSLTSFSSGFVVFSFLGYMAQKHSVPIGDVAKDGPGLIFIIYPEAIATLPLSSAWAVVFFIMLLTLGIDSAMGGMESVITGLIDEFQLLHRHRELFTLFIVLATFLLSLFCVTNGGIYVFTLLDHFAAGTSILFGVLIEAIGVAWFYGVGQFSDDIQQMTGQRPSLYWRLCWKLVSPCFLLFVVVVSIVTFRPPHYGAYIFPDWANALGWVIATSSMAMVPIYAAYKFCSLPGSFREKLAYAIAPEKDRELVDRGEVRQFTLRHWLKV

human SERT = biological target: T5, human SERT (Homo sapiens, UniProt P31645); assay: hSERT release of [3H]serotonin, CHO cells; format: cell-based
T5 construct: expressed in transfected cells
T5 sequence (P31645 whole entry): as the sequence (P31645 whole entry) above

[3] = biological target: T6, Nicotinic acetylcholine Receptor α4 β2 (nAChR(a4/b2)) (Homo sapiens, UniProt P17787+P43681); assay: cell-based; conditions: nAChR(a4/b2), Ion Channel, blocker; read-out: IC50 (μM) Antag./Blocker/Inhibitor
T6 construct: expressed in transfected cells
T6 sequence (P43681 29-627 limits assumed): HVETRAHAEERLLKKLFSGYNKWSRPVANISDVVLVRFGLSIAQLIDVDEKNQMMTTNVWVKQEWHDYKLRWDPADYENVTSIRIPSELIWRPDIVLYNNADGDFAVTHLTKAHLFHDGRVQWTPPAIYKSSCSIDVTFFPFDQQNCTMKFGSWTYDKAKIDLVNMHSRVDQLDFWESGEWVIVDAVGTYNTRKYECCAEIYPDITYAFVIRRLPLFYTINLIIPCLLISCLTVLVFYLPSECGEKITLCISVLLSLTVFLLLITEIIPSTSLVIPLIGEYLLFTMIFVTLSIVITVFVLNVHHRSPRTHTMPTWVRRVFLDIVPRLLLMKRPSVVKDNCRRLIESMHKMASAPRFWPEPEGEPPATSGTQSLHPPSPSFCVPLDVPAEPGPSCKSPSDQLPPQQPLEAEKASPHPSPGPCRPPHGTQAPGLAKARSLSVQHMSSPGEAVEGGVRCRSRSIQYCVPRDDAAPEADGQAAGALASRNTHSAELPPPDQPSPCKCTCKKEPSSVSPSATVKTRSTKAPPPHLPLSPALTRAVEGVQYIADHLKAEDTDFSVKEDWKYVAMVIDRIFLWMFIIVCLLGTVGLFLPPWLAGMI
T6 sequence (P17787 26-502): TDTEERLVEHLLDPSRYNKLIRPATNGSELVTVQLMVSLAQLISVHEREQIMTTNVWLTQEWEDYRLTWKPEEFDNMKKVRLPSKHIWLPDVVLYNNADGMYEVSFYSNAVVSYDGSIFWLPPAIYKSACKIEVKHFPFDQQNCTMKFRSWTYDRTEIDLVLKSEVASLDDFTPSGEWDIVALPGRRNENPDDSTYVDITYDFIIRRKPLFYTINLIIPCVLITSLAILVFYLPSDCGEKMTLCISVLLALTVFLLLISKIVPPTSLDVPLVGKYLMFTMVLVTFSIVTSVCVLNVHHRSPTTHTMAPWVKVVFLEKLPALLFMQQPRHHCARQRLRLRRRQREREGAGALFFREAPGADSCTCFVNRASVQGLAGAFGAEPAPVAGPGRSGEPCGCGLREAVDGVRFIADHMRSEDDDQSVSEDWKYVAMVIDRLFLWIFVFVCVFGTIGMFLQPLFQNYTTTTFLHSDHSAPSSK

[4] = biological target: Gamma-aminobutyric acid Receptor A (GABAA) (Homo sapiens, UniProt P14867+P47870); format: cell-based; conditions: Ion Channel, blocker, read-out: IC50 (μM) Antag./Blocker/Inhibitor
Chain of Gamma-aminobutyric acid Receptor A (GABAA) (P14867 28-456): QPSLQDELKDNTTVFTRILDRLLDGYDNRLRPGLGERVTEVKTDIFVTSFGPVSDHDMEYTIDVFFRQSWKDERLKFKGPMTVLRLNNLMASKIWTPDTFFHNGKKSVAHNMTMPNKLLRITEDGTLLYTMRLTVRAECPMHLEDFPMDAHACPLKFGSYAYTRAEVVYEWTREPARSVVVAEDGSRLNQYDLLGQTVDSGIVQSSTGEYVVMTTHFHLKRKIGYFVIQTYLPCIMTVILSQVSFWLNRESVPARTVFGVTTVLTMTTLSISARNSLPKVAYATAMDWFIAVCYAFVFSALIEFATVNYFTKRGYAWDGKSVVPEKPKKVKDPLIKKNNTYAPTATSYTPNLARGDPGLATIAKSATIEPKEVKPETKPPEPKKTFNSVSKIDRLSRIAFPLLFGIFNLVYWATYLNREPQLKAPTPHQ
Chain of Gamma-aminobutyric acid Receptor A (GABAA) (P47870 26-512): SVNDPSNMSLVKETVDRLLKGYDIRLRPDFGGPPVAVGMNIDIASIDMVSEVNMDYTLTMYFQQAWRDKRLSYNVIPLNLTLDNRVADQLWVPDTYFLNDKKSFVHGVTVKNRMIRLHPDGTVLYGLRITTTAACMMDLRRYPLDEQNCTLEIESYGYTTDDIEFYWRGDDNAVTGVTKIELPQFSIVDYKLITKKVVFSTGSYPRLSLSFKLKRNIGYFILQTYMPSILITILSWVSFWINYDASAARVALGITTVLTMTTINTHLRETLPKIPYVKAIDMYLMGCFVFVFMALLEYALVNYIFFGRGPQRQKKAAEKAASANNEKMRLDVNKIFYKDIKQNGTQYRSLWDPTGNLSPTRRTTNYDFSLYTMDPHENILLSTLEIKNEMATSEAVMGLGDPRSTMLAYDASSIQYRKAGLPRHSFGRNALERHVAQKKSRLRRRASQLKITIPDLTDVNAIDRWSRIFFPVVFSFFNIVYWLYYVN
Chain of Gamma-aminobutyric acid Receptor A (GABAA) (P18507 40-475 partner): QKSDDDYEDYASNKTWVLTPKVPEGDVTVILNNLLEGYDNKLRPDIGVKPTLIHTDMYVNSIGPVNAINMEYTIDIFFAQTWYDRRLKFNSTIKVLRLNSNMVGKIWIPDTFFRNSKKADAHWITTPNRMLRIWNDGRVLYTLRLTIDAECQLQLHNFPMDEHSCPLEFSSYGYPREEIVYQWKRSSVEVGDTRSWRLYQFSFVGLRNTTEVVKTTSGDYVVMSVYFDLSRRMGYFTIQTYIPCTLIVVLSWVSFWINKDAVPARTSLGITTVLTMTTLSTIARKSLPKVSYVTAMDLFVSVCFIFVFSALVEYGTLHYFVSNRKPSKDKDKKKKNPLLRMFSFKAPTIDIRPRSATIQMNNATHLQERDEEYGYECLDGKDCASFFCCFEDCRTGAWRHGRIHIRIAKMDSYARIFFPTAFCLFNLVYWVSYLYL

Question: For `CC(N)Cc1c[nH]c2ccccc12` (stereo not drawn) [1-(1H-indol-3-yl)propan-2-amine], which IC50 (MAOA) is on record?
Answer: 380 nM

Question: With `CC(N)Cc1c[nH]c2ccc(Br)cc12` (stereo not drawn) [1-(5-bromo-1H-indol-3-yl)propan-2-amine] as the molecule, how does the IC50 (MAOA) read?
Answer: 1300 nM

Question: With `CC(N)Cc1c[nH]c2ccc(Cl)cc12` (stereo not drawn) [1-(5-chloro-1H-indol-3-yl) propan-2-amine] as the molecule, how does the IC50 (MAOA) read?
Answer: 250 nM

Question: With `CC(N)Cc1c[nH]c2ccc(F)cc12` (stereo not drawn) [1-(5-fluoro-1H-indol-3-yl) propan-2-amine] as the molecule, how does the “MAOA inhibition (MAOI or not, in words)” value (MAOA; previously reported data) read?
Answer: are MAOIs

Question: And the IC50 (MAOA)?
Answer: 450 nM

Question: Which results are given for `CNCC(=O)c1c[nH]c2ccc(F)cc12` [1-(5-fluoro-1H-indol-3-yl)-2-(methylamino)ethan-1-one, reference compound]?
Answer: Hill [1]: 1.02; IC50 ([1]; Table 10, Source: Original data, read-out: MAOA IC50): 3430 nM; MAOA inhibition (MAOI or not, in words) [1]: is also an MAOI

Question: For `CCC(N)Cc1c[nH]c2ccc(F)cc12` (stereo not drawn) [1-(5-fluoro-1H-indol-3-yl)butan-2-amine, reference compound], which IC50 [1] is on record?
Answer: 2480 nM

Question: And the Hill [1]?
Answer: 0.89

Question: For `Cc1[nH]c2ccc(F)cc2c1CC(C)N` (stereo not drawn) [1-(5-fluoro-2-methyl-1H-indol-3-yl)propan-2-amine], which IC50 (MAOA) is on record?
Answer: 4100 nM

Question: For `Cc1ccc2[nH]cc(CC(C)N)c2c1` (stereo not drawn) [1-(5-methyl-1H-indol-3-yl) propan-2-amine], which IC50 (MAOA) is on record?
Answer: 1500 nM

Question: With `CC(N)Cc1c[nH]c2cc(F)ccc12` (stereo not drawn) [1-(6-fluoro-1H-indol-3-yl) propan-2-amine] as the molecule, how does the IC50 (MAOA) read?
Answer: 1800 nM

Question: For `CCC(N)C(=O)c1c[nH]c2ccc(F)cc12` (stereo not drawn) [2-amino-1-(5-fluoro-1H-indol-3-yl) butan-1-one], which IC50 [1] is on record?
Answer: > 30000 nM

Question: With `CNC(C)Cc1ccc2c(c1)OCO2` (stereo not drawn) [MDMA, 3,4-methylenedioxymethamphetamine] as the molecule, how does the EC50 (neuritogenesis; Ly et al. Cell reports 2018, Figure S3, read-out: EC50 for promoting neuritogenesis) read?
Answer: 7.41 nM

Question: And the “Emax for promoting neuritogenesis” value (neuritogenesis; relative to ketamine, Ly et al. 2018)?
Answer: approximately twice that of ketamine

Question: For `CNC(C)Cc1c[nH]c2ccc(F)cc12` (stereo not drawn) [[1-(5-fluoro-1H-indol-3-yl)propan-2-yl](methyl)amine, reference compound], which IC50 [1] is on record?
Answer: 450 nM

Question: What about the Hill [1] of the same molecule?
Answer: 1.01

Question: What about the “MAOA inhibition (MAOI or not, in words)” value [1] of the same molecule?
Answer: are MAOIs

Question: With `CNC(C)C(=O)c1c[nH]c2ccc(F)cc12` (stereo not drawn) [drawing 183] as the molecule, how does the IC50 [2] read?
Answer: 3500 nM

Question: And the Ki [2]?
Answer: 1600 nM

Question: With `CNC(C)C(=O)c1c[nH]c2ccc(Br)cc12` (stereo not drawn) [drawing 184] as the molecule, how does the IC50 [2] read?
Answer: 5600 nM

Question: And the Ki [2]?
Answer: 2600 nM

Question: With `CNC(C)C(=O)c1c[nH]c2ccc(Cl)cc12` (stereo not drawn) [drawing 185] as the molecule, how does the IC50 [2] read?
Answer: 2500 nM

Question: What about the Ki [2] of the same molecule?
Answer: 1100 nM

Question: What does the source list for `CNC(C)C(=O)c1c[nH]c2ccc(F)cc12` (stereo not drawn) [drawing 186]?
Answer: EC50 (human DAT): 620 nM; DAT/SERT ratio (human DAT): 0.31; EC50 (human SERT): 190 nM

Question: What does the source list for `CNC(C)C(=O)c1c[nH]c2ccc(Br)cc12` (stereo not drawn) [drawing 187]?
Answer: EC50 (human DAT): 2100 nM; DAT/SERT ratio (human DAT): 0.14; EC50 (human SERT): 295 nM

Question: With `CNC(C)C(=O)c1c[nH]c2ccc(Cl)cc12` (stereo not drawn) [drawing 188] as the molecule, how does the EC50 (human DAT) read?
Answer: 865 nM

Question: And the DAT/SERT ratio (human DAT)?
Answer: 0.23

Question: And the EC50 (human SERT)?
Answer: 200 nM

Question: For “Dihydro-AY-erythroidine [reference compound]”, which IC50 [3] is on record?
Answer: 0.682 µM

Question: For Picrotoxin, which IC50 [4] is on record?
Answer: 2.78 µM
